Data: ChEMBL document CHEMBL4311960, “Two optimized antimicrobial peptides with therapeutic potential for clinical antibiotic-resistant Staphylococcus aureus” (Eur J Med Chem, 2019)
≈ marks a conversion by molar mass, not a printed value. Values belong to the molecule of their own block, whether it stands above or below them.

How the values were obtained:
Staphylococcus aureus [1] = experiment: Antibacterial activity against Staphylococcus aureus ATCC 25923 assessed as reduction in bacterial growth incubated for 24 hrs by serial dilution method; type: functional; details: ATCC 25923, 24 h
Erythrocyte = experiment: Hemolytic activity in mouse Erythrocyte assessed as HC10 incubated for 1 hr; type: ADME, cell-based
Candida albicans = experiment: Antifungal activity against Candida albicans ATCC 5314 assessed as reduction in fungal growth incubated for 24 hrs by serial dilution method; type: functional; details: ATCC 5314, 24 h, read-out: MIC
[2] = Hemolytic activity in mouse Erythrocyte assessed as HC50 incubated for 1 hr; type: ADME, cell-based; details: mouse erythrocytes
Staphylococcus aureus [3] = experiment: Antibacterial activity against methicillin-resistant Staphylococcus aureus ATCC 18466 assessed as reduction in bacterial growth incubated for 24 hrs by serial dilution method; type: functional; details: ATCC 18466, 24 h, read-out: MIC
Streptococcus sanguinis = experiment: Antibacterial activity against Streptococcus sanguinis ATCC 10556 assessed as reduction in bacterial growth incubated for 24 hrs by serial dilution method; type: functional; details: ATCC 10556, 24 h, read-out: MIC
[4] = Hemolytic activity in mouse Erythrocyte at 640 ug/ml incubated for 1 hr relative to control; type: ADME, cell-based; details: mouse erythrocytes, read-out: %max
[5] = Cytotoxicity against human HEK293T cells assessed as cell viability at 5 to 640 ug/ml incubated for 48 hrs by MTT assay relative to control; type: cell-based, HEK-293T; details: read-out: Activity
Streptococcus mutans = experiment: Antibacterial activity against Streptococcus mutans UA159 assessed as reduction in bacterial growth incubated for 24 hrs by serial dilution method; type: functional; details: UA159, 24 h
[6] = Cytotoxicity against human HEK293T cells assessed as cell viability at 640 ug/ml incubated for 48 hrs by MTT assay relative to control; type: cell-based, HEK-293T; details: read-out: Activity
Staphylococcus aureus [7] = experiment: Antibacterial activity against methicillin-resistant Staphylococcus aureus ATCC 19167 assessed as reduction in bacterial growth incubated for 24 hrs by serial dilution method; type: functional; details: ATCC 19167, 24 h
Staphylococcus aureus [8] = experiment: Antibacterial activity against methicillin-resistant Staphylococcus aureus ATCC 19047 assessed as reduction in bacterial growth incubated for 24 hrs by serial dilution method; type: functional; details: ATCC 19047, 24 h
Staphylococcus aureus [9] = experiment: Ratio of MIC for resistant Staphylococcus aureus ATCC 29213 for 15 days to MIC for Staphylococcus aureus ATCC 29213 for 24 hrs; type: functional
Staphylococcus aureus [10] = experiment: Antibacterial activity against Staphylococcus aureus ATCC 25923 assessed as reduction in bacterial growth at MIC measured after 15 passages; type: functional
Staphylococcus aureus [11] = experiment: Antibacterial activity against methicillin-resistant Staphylococcus aureus ATCC 19102 assessed as reduction in bacterial growth incubated for 24 hrs by serial dilution method; type: functional; details: ATCC 19102, 24 h
Staphylococcus aureus [12] = experiment: Antibacterial activity against methicillin-resistant Staphylococcus aureus ATCC 18567 assessed as reduction in bacterial growth incubated for 24 hrs by serial dilution method; type: functional; details: ATCC 18567, 24 h
Staphylococcus aureus [13] = experiment: Antibacterial activity against Staphylococcus aureus ATCC 29213 assessed as reduction in bacterial growth at MIC measured after 15 passages; type: functional
Staphylococcus aureus [14] = experiment: Antibacterial activity against methicillin-resistant Staphylococcus aureus ATCC 18475 assessed as reduction in bacterial growth incubated for 24 hrs by serial dilution method; type: functional; details: ATCC 18475, 24 h
Staphylococcus aureus [15] = experiment: Antibacterial activity against methicillin-resistant Staphylococcus aureus ATCC 18908 assessed as reduction in bacterial growth incubated for 24 hrs by serial dilution method; type: functional; details: ATCC 18908, 24 h
Staphylococcus aureus [16] = experiment: Antibacterial activity against methicillin-resistant Staphylococcus aureus ATCC 18858 assessed as reduction in bacterial growth incubated for 24 hrs by serial dilution method; type: functional; details: ATCC 18858, 24 h
Staphylococcus aureus [17] = experiment: Antibacterial activity against methicillin-resistant Staphylococcus aureus ATCC 19041 assessed as reduction in bacterial growth incubated for 24 hrs by serial dilution method; type: functional; details: ATCC 19041, 24 h
Staphylococcus aureus [18] = experiment: Ratio of MIC for resistant Staphylococcus aureus ATCC 25923 for 15 days to MIC for Staphylococcus aureus ATCC 25923 for 24 hrs; type: functional
Staphylococcus aureus [19] = experiment: Antibacterial activity against methicillin-resistant Staphylococcus aureus ATCC 19494 assessed as reduction in bacterial growth incubated for 24 hrs by serial dilution method; type: functional; details: ATCC 19494, 24 h
Staphylococcus aureus [20] = experiment: Antibacterial activity against methicillin-resistant Staphylococcus aureus ATCC 19952 assessed as reduction in bacterial growth incubated for 24 hrs by serial dilution method; type: functional; details: ATCC 19952, 24 h
Staphylococcus aureus [21] = experiment: Antibacterial activity against methicillin-resistant Staphylococcus aureus ATCC 19498 assessed as reduction in bacterial growth incubated for 24 hrs by serial dilution method; type: functional; details: ATCC 19498, 24 h
Staphylococcus aureus [22] = experiment: Antibacterial activity against Staphylococcus aureus ATCC 29213 assessed as reduction in bacterial growth incubated for 24 hrs by serial dilution method; type: functional; details: ATCC 29213, 24 h
Staphylococcus aureus [23] = experiment: Antibacterial activity against Staphylococcus aureus ATCC 8325.4 assessed as reduction in bacterial growth incubated for 24 hrs by serial dilution method; type: functional; details: ATCC 8325.4, 24 h
Staphylococcus aureus [24] = experiment: Antibacterial activity against methicillin-resistant Staphylococcus aureus ATCC 19916 assessed as reduction in bacterial growth incubated for 24 hrs by serial dilution method; type: functional; details: ATCC 19916, 24 h
Staphylococcus aureus [25] = experiment: Antibacterial activity against methicillin-resistant Staphylococcus aureus ATCC 19900 assessed as reduction in bacterial growth incubated for 24 hrs by serial dilution method; type: functional; details: ATCC 19900, 24 h
Staphylococcus aureus [26] = experiment: Antibacterial activity against Staphylococcus aureus ATCC 6538 assessed as reduction in bacterial growth incubated for 24 hrs by serial dilution method; type: functional; details: ATCC 6538, 24 h
Staphylococcus aureus [27] = experiment: Antibacterial activity against methicillin-resistant Staphylococcus aureus ATCC 18878 assessed as reduction in bacterial growth incubated for 24 hrs by serial dilution method; type: functional; details: ATCC 18878, 24 h
Staphylococcus aureus [28] = experiment: Antibacterial activity against methicillin-resistant Staphylococcus aureus ATCC 19423 assessed as reduction in bacterial growth incubated for 24 hrs by serial dilution method; type: functional; details: ATCC 19423, 24 h

Molecule: H-WYERLINRKFKWLKGRLSKK-NH2
- MIC (Staphylococcus aureus [1]): > 64 µg/mL
- HC10 (Erythrocyte): 178.82 µg/mL
- MIC (Candida albicans): < 64 µg/mL
- HC50 at 1 h [2]: > 640 µg/mL
- MIC (Staphylococcus aureus [3]): < 64 µg/mL
- MIC (Streptococcus sanguinis): < 64 µg/mL
- hemolysis at 1 h, 640 ug/ml [4]: 17.3%
- viability at 48 h [5]: 70 to 80%
- MIC (Streptococcus mutans): > 64 µg/mL

- MIC (Candida albicans): 4 µg/mL (≈ 0.0105 mM)
Molecule: Clc1ccc(COC(Cn2ccnc2)c2ccc(Cl)cc2Cl)cc1 (configuration not stated) [ECONAZOLE]

Molecule: H-YFRTIRRFFKKLFKTLKK-NH2
- MIC (Staphylococcus aureus [1]; read-out: MIC): 64 µg/mL
- HC10 (Erythrocyte): 640 µg/mL
- MIC (Candida albicans): 64 µg/mL
- HC50 at 1 h [2]: > 640 µg/mL
- MIC (Staphylococcus aureus [3]): 64 µg/mL
- MIC (Streptococcus sanguinis): < 64 µg/mL
- hemolysis at 1 h, 640 ug/ml [4]: 10.3%
- viability at 48 h [5]: 70 to 80%
- MIC (Streptococcus mutans; read-out: MIC): < 64 µg/mL

Molecule: H-YIRKIRRFFKKRFKFRKK-NH2
- MIC (Staphylococcus aureus [1]; read-out: MIC): 64 µg/mL
- HC10 (Erythrocyte): > 640 µg/mL
- MIC (Candida albicans): 32 µg/mL
- HC50 at 1 h [2]: > 640 µg/mL
- MIC (Staphylococcus aureus [3]): 32 µg/mL
- MIC (Streptococcus sanguinis): 64 µg/mL
- hemolysis at 1 h, 640 ug/ml [4]: 8.21%
- viability at 48 h [5]: 70 to 80%
- MIC (Streptococcus mutans; read-out: MIC): 16 µg/mL

Molecule: H-WVRKVRRWWKKVKKVVKK-NH2
- MIC (Staphylococcus aureus [1]; read-out: MIC): < 64 µg/mL
- HC10 (Erythrocyte): 80.04 µg/mL
- MIC (Candida albicans): < 64 µg/mL
- viability at 48 h, 640 ug/ml [6]: 65.7%
- HC50 at 1 h [2]: > 640 µg/mL
- MIC (Staphylococcus aureus [3]): < 64 µg/mL
- MIC (Streptococcus sanguinis): < 64 µg/mL
- hemolysis at 1 h, 640 ug/ml [4]: 25.5%
- MIC (Streptococcus mutans; read-out: MIC): < 64 µg/mL

Molecule: CN[C@H](CC(C)C)C(=O)N[C@H]1C(=O)N[C@@H](CC(N)=O)C(=O)N[C@H]2C(=O)N[C@H]3C(=O)N[C@H](C(=O)N[C@H](C(=O)O)c4cc(O)cc(O)c4-c4cc3ccc4O)[C@H](O)c3ccc(c(Cl)c3)Oc3cc2cc(c3O[C@@H]2O[C@H](CO)[C@@H](O)[C@H](O)[C@H]2O[C@H]2C[C@](C)(N)[C@H](O)[C@H](C)O2)Oc2ccc(cc2Cl)[C@H]1O [VANCOMYCIN]
- MIC (Streptococcus sanguinis): 1 µg/mL (≈ 0.00069 mM)
- MIC (Streptococcus mutans; read-out: MIC): 2 µg/mL (≈ 0.00138 mM)

Molecule: COc1cccc(OC)c1C(=O)N[C@@H]1C(=O)N2[C@@H]1SC(C)(C)[C@@H]2C(=O)O [METHICILLIN]
- MIC (Staphylococcus aureus [7]): > 1200 µg/mL
- MIC (Staphylococcus aureus [8]): > 1200 µg/mL
- MIC (Staphylococcus aureus [1]; read-out: MIC): 1 µg/mL (≈ 0.00263 mM)
- Ratio (Staphylococcus aureus [9]): 8 - 16
- fold change (FC) (Staphylococcus aureus [10]): 8 - 16
- MIC (Staphylococcus aureus [11]): > 1200 µg/mL
- MIC (Staphylococcus aureus [12]): > 1200 µg/mL
- fold change (FC) (Staphylococcus aureus [13]): 8 - 16
- MIC (Staphylococcus aureus [14]): > 1200 µg/mL
- MIC (Staphylococcus aureus [3]): > 1200 µg/mL
- MIC (Staphylococcus aureus [15]): > 1200 µg/mL
- MIC (Staphylococcus aureus [16]): > 1200 µg/mL
- MIC (Staphylococcus aureus [17]): > 1200 µg/mL
- Ratio (Staphylococcus aureus [18]): 8 - 16
- MIC (Staphylococcus aureus [19]): > 1200 µg/mL
- MIC (Staphylococcus aureus [20]): > 1200 µg/mL
- MIC (Staphylococcus aureus [21]): > 1200 µg/mL
- MIC (Staphylococcus aureus [22]): 1 µg/mL (≈ 0.00263 mM)
- MIC (Staphylococcus aureus [23]): 1 µg/mL (≈ 0.00263 mM)
- MIC (Staphylococcus aureus [24]): > 1200 µg/mL
- MIC (Staphylococcus aureus [25]): > 1200 µg/mL
- MIC (Staphylococcus aureus [26]): 1 µg/mL (≈ 0.00263 mM)
- MIC (Staphylococcus aureus [27]): > 1200 µg/mL
- MIC (Staphylococcus aureus [28]): > 1200 µg/mL

Molecule: H-YIRKIRRFFKTLNKNLKK-NH2
- MIC (Staphylococcus aureus [1]): > 64 µg/mL
- HC10 (Erythrocyte): > 640 µg/mL
- MIC (Candida albicans): < 64 µg/mL
- HC50 at 1 h [2]: > 640 µg/mL
- MIC (Staphylococcus aureus [3]): < 64 µg/mL
- MIC (Streptococcus sanguinis): < 64 µg/mL
- hemolysis at 1 h, 640 ug/ml [4]: 7.17%
- viability at 48 h [5]: 70 to 80%
- MIC (Streptococcus mutans; read-out: MIC): 32 µg/mL
